Experimental data published in patent US12595230B2, “Substituted 6,7-dihydro-5H-benzo[7]annulene compounds and their derivatives, processes for their preparation and therapeutic uses thereof” (Sanofi, priority 2020, dated 2026).

Biological target: T1, ERα (Homo sapiens, UniProt P03372)
T1 construct: host or cells: MCF7
T1 sequence (P03372 1-595): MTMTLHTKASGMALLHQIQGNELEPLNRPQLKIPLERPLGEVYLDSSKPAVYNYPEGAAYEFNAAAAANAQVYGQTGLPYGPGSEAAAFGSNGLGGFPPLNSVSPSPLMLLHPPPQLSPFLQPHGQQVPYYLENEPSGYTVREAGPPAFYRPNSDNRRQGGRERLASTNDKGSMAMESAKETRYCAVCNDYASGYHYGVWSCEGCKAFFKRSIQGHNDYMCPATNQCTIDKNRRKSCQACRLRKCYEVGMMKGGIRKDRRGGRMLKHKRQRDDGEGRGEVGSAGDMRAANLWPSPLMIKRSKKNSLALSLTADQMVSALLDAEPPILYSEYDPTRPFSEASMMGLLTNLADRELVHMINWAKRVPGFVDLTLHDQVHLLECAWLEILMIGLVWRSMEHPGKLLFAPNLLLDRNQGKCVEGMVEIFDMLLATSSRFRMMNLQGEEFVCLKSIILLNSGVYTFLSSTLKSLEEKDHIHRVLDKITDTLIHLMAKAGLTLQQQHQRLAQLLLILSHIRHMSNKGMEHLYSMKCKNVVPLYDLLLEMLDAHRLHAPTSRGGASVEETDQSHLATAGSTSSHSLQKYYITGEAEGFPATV
Assay: Estrogen receptor degradation activity: breast cancer cell ERα in cell western assay (MCF7 cells)
Format: cell-based
Details: for % Degradation At 0.3 μM: 4 hours, relative to fulvestrant 0.1 μM positive control; for DC50: read-out: Degradation IC50
Protocol: Test: Estrogen Receptor Degradation Activity Said test involves measuring the in vitro degradation activity of the compounds of the Table 1a. The measurements of the degradation activities were made using a breast cancer cell ERα in cell western assay as described hereunder. MCF7 cells (ATCC) were seeded in 384 wells microplate (collagen coated) at a concentration of 10000 cells/30 μL per well in red phenol free MEM alpha medium (invitrogen) containing 5% charcoal dextran striped FBS. The following day, 9 points serial 1:5 dilution of each compound was added to the cells in 2.5p L at final concentrations ranging from 0.3-0.0000018 μM (in table 2), or 0.1 μM for fulvestrant (using as positive control). At 4 hours post compound addition the cells were fixed by adding 25 μL of formalin (final concentration 5% formalin containing 0.1% triton) for 10 minutes at room temperature and then washed twice with PBS. Then, 50 μL of LI-COR blocking buffer containing 0.1% Triton was added to plate for 30 minutes at room temperature. LI-COR blocking buffer was removed and cells were incubated overnight at cold room with 50 μL anti-ER rabbit monoclonal antibody (Thermo scientific MA1-39540) diluted at 1:1000 in LI-COR blocking buffer containing 0.1% tween-20. Wells which were treated with blocking buffer but no antibody were used as background control. Wells were washed twice with PBS (0.1% tween-20) and incubated at 37° C. for 60 minutes in LI-COR (0.1% tween-20) containing goat anti-rabbit antibody Alexa 488 (1:1000) and Syto-64 a DNA dye (2 μM final concentration). Cells were then washed 3 times in PBS and scanned in ACUMEN explorer (TTP-Labtech). Integrated intensities in the green fluorescence and red fluorescence were measured to determine the levels of ERα and DNA respectively. The degradation activity with respect to estrogen receptors in this test is given by the concentration which degrades 50% of the estrogen receptor (or IC50) in nM. […] DMSO−fulvestrant)).

[1] = 4 hours post compound addition, concentration which degrades 50% of the estrogen receptor

Compound	% Degradation At 0.3 μM	DC50 [1]	IC50 [1]
O=C(O)c1ccc2c(c1)CCCC(c1ccc(F)cc1Cl)=C2c1ccc(CC2(F)CN(CCCF)C2)cc1 [Example 242, 8-(2-chloro-4-fluorophenyl)-9-(4-((3-fluoro-1-(3-fluoropropyl)azetidin-3-yl)methyl)phenyl)-6,7-dihydro-5H-benzo[7]annulene-3-carboxylic acid]	78%	1.7 nM	
CCC1CCc2cc(C(=O)O)ccc2C(c2ccc(CC3CN(CCCF)C3)cc2)=C1c1ccc(Cl)cc1 (racemic) [Example 315, 8-(4-chlorophenyl)-7-ethyl-9-(4-((1-(3-fluoropropyl)azetidin-3-yl)methyl)phenyl)-6,7-dihydro-5H-benzo[7]annulene-3-carboxylic acid]	87%	1 nM	
Cc1c(C2=C(c3ccc(CC4CN(CCCF)C4)cc3)c3ccc(C(=O)O)cc3CCC2C)cccc1C(F)(F)F (racemic) [Example 310, 9-(4-((1-(3-fluoropropyl)azetidin-3-yl)methyl)phenyl)-7-methyl-8-(2-methyl-3-(trifluoromethyl)phenyl)-6,7-dihydro-5H-benzo[7]annulene-3-carboxylic acid]	85%	0.4 nM	
O=C(O)c1ccc2c(c1)CCCC(c1ccc(Cl)cc1Cl)=C2c1ccc(C(F)C2CN(CCCF)C2)cc1 (single isomer, unassigned) [Example 44, 8-(2,4-dichlorophenyl)-9-(4-(fluoro(1-(3-fluoropropyl)azetidin-3-yl)methyl)phenyl)-6,7-dihydro-5H-benzo[7]annulene-3-carboxylic acid]	90%	0.5 nM	
O=C(O)c1ccc2c(c1)CCCC(c1ccc(Cl)cc1Cl)=C2c1ccc(CC2CN(CCC(F)(F)F)C2)cc1 [Example 261, 8-(2,4-dichlorophenyl)-9-(4-((1-(3,3,3-trifluoropropyl)azetidin-3-yl)methyl)phenyl)-6,7-dihydro-5H-benzo[7]annulene-3-carboxylic acid]	89%	0.8 nM	
Cc1c(Cl)cccc1C1=C(c2ccc(CC3CN(CCC(F)F)C3)cc2)c2ccc(C(=O)O)cc2CCC1 [Example 293, 8-(3-chloro-2-methylphenyl)-9-(4-((1-(3,3-difluoropropyl)azetidin-3-yl)methyl)phenyl)-6,7-dihydro-5H-benzo[7]annulene-3-carboxylic acid]	86%	0.6 nM	
Cc1cc(F)ccc1C1=C(c2ccc(CC3CN(CCC(F)F)C3)cc2)c2ccc(C(=O)O)cc2CCC1 [Example 279, 9-(4-((1-(3,3-difluoropropyl)azetidin-3-yl)methyl)phenyl)-8-(4-fluoro-2-methylphenyl)-6,7-dihydro-5H-benzo[7]annulene-3-carboxylic acid]	84%	0.2 nM	
O=C(O)c1ccc2c(c1)SCC(c1ccc(F)cc1F)=C2c1ccc(CC2CN(CCCF)C2)cc1 [Example 314, 3-(2,4-difluorophenyl)-4-(4-((1-(3-fluoropropyl)azetidin-3-yl)methyl)phenyl)-2H-thiochromene-7-carboxylic acid]	87%	3 nM	
FCCCN1CC(Cc2ccc(C3=C(c4ccccc4Cl)CCCc4ccccc43)cc2)C1 [Example 304, 3-(4-(8-(2-chlorophenyl)-6,7-dihydro-5H-benzo[7]annulen-9-yl)benzyl)-1-(3-fluoropropyl)azetidine]	89%	17.4 nM	
COc1c(C(=O)O)ccc2c1CCCC(c1ccc(F)cc1C(F)(F)F)=C2c1ccc(CC2CN(CCCF)C2)cc1.Cl [Example 283, 8-(4-fluoro-2-(trifluoromethyl)phenyl)-9-(4-((1-(3-fluoropropyl)azetidin-3-yl)methyl)phenyl)-4-methoxy-6,7-dihydro-5H-benzo[7]annulene-3-carboxylic acid hydrochloride]	90%	93.3 nM	
O=C(O)c1c(F)cc2c(c1F)CCCC(c1ccccc1Cl)=C2c1ccc(CC2CN(CCCF)C2)cc1 [Example 224]	82%	43 nM	

Other lines, results leading:

% Degradation At 0.3 μM	DC50 [1]	IC50 [1]	Compound
94%	0.4 nM		Cc1cccc(C2=C(c3ccc(CC4CN(CCCF)C4)cc3)c3ccc(C(=O)O)cc3CCC2)c1Cl [Example 30, 8-(2-chloro-3-methylphenyl)-9-(4-((1-(3-fluoropropyl)azetidin-3-yl)methyl)phenyl)-6,7-dihydro-5H-benzo[7]annulene-3-carboxylic acid]
88%		0.1 nM	O=C(O)c1ccc2c(c1)CCCC(c1cccc(F)c1C(F)(F)F)=C2c1ccc(CC2CN(CCCF)C2)cc1 [Example 232, 8-(3-fluoro-2-(trifluoromethyl)phenyl)-9-(4-((1-(3-fluoropropyl)azetidin-3-yl)methyl)phenyl)-6,7-dihydro-5H-benzo[7]annulene-3-carboxylic acid]
86%	0.5 nM		Cl.O=C(O)c1ccc2c(c1)CCCC(C1=CCC(F)(F)CC1)=C2c1ccc(CC2CN(CCCF)C2)cc1 [Example 5, 8-(4,4-difluorocyclohex-1-en-1-yl)-9-(4-((1-(3-fluoropropyl)azetidin-3-yl)methyl)phenyl)-6,7-dihydro-5H-benzo[7]annulene-3-carboxylic acid]
84%	0.4 nM		O=C(O)c1ccc2c(c1)CCCC(C1CC3CCC1C3)=C2c1ccc(CC2CN(CCCF)C2)cc1 (mixture of isomers) [Example 307, 8-(bicyclo[2.2.1]heptan-2-yl)-9-(4-((1-(3-fluoropropyl)azetidin-3-yl)methyl)phenyl)-6,7-dihydro-5H-benzo[7]annulene-3-carboxylic acid]
88%	10.5 nM		O=C(O)c1ccc2c(c1)CCCC(C1=CC3(C1)CC(F)(F)C3)=C2c1ccc(CC2CN(CCCF)C2)cc1 [Example 50, 8-(6,6-difluorospiro[3.3]hept-1-en-2-yl)-9-(4-((1-(3-fluoropropyl)azetidin-3-yl)methyl)phenyl)-6,7-dihydro-5H-benzo[7]annulene-3-carboxylic acid]
91%	0.4 nM		O=C(O)c1ccc2c(c1)CCCC(c1ccccc1F)=C2c1ccc(CC2CN(CCCF)C2)cc1 [Example 35, 8-(2-fluorophenyl)-9-(4-((1-(3-fluoropropyl)azetidin-3-yl)methyl)phenyl)-6,7-dihydro-5H-benzo[7]annulene-3-carboxylic acid]
89%	0.5 nM		COc1nc(C(F)(F)F)ccc1C1=C(c2ccc(CC3CN(CCCF)C3)cc2)c2ccc(C(=O)O)cc2CCC1 [Example 268, 9-(4-((1-(3-fluoropropyl)azetidin-3-yl)methyl)phenyl)-8-(2-methoxy-6-(trifluoromethyl)pyridin-3-yl)-6,7-dihydro-5H-benzo[7]annulene-3-carboxylic acid]
90%	0.7 nM		O=C([O-])c1ccc2c(c1)CCCC(C1=C[C@@H]3CCC[C@@H]3C1)=C2c1ccc(CC2CN(CCCF)C2)cc1.[Na+] (relative stereo) [Example 299, sodium 9-(4-((1-(3-fluoropropyl)azetidin-3-yl)methyl)phenyl)-8-(cis-1,3a,4,5,6,6a-hexahydropentalen-2-yl)-6,7-dihydro-5H-benzo[7]annulene-3-carboxylate]
89%	0.3 nM		O=C(O)c1ccc2c(c1)CCCC(c1ccccc1Cl)=C2c1ccc(CC2CN(CCCF)C2)cc1 [Example 3, 8-(2-chlorophenyl)-9-(4-((1-(3-fluoropropyl)azetidin-3-yl)methyl)phenyl)-6,7-dihydro-5H-benzo[7]annulene-3-carboxylic acid]
